Source: patent US20090298887A1, “METHOD FOR IMPROVING HARVESTED SEED QUALITY” (Syngenta Corp Protection, Inc., priority 2004, published 2009)

Tests used:
soybean plants [1] = experiment: Accelerated aging test of seeds harvested from treated soybean plants; assay type: in vivo
Experimental: Another germination test, the accelerated aging test (AA), estimates the carryover potential of a seed lot in warehouse storage. The seeds are exposed to high temperatures and high relative humidity for short periods of time that cause seed deterioration. Seeds are suspended over water in a chamber for a period of time, for example 72 hours (wheat and soybeans) or 96 hours (corn), then tested in a standard warm germination test. This test only is usually used on seed whose longevity was in question.
(§1) In the method of the present invention, seeds harvested from plants treated with a foliar insecticide, or seeds harvested from plants whose pre-planted seeds were treated with a seed treatment insecticide, or seeds harvested from plants that underwent both treatments, both as the pre-planted seed (seed treatment) and as the post emergent plant (foliar insecticide treatment) were tested in warm germination and accelerated aging tests to determine the health and quality of the harvested seeds. In accordance with the germination tests, it was discovered that seed-producing plants resulting from the growers' application of insecticides at the seed stage, the foliar stage, and both, not only were healthier plants, but they also produced healthier seeds.
(§2) Germination studies were conducted on soybean plants comparing plants treated with a combination of fungicides with plants (1) wherein only insecticidal seed treatment was applied; (2) wherein insecticidal seed treatment was applied followed by foliar insecticidal treatment on the resulting plant; and (3) wherein only foliar insecticide was applied to a plant grown from untreated seed.

soybean plants [2] = experiment: Warm germination test of seeds harvested from treated soybean plants; assay type: in vivo
Excerpt: A preferred test of seed germination is a warm germination test because it is used for labeling purposes. Germination is defined as: “the emergence and development from the seed embryo of those essential structures which are indicative of the ability to produce a normal plant under favorable conditions.” The warm germination test reflects the stand producing potential of a seed lot under ideal planting conditions. In a typical warm germination test, 400 seeds from each seed lot are placed under moist conditions on blotters, rolled towels, or sand and maintained at 77° F. for about seven days. At the end of this period the seedlings are categorized as normal, abnormal, or diseased, and dead or hard seeds. The percentage germination is calculated from the number of normal seedlings from the total number of seeds evaluated.
as §1, §2

[3] = foliar insecticide only (2 applications), untreated seed
[4] = insecticidal seed treatment only, 30 g
[5] = insecticidal seed treatment only, 50 g

| SMILES | Accelerated Aging (+/−Std. Error) (soybean plants [1]; [3]) | Accelerated Aging (+/−Std. Error) (soybean plants [1]; foliar insecticide only (8/8)) | Accelerated Aging (+/−Std. Error) (soybean plants [1]; foliar insecticide only (8/12)) | Warm Germination (+/−Std. Error) (soybean plants [2]; [3]) | Warm Germination (+/−Std. Error) (soybean plants [2]; foliar insecticide only (8/8)) | Warm Germination (+/−Std. Error) (soybean plants [2]; foliar insecticide only (8/12)) | Accelerated Aging (+/−Std. Error) (soybean plants [1]; [4]) | Accelerated Aging (+/−Std. Error) (soybean plants [1]; [5]) | Warm Germination (+/−Std. Error) (soybean plants [2]; [4]) | Warm Germination (+/−Std. Error) (soybean plants [2]; [5]) |
| --- | --- | --- | --- | --- | --- | --- | --- | --- | --- | --- |
| CC1(C)[C@H](C(=O)O[C@H](C#N)c2cccc(Oc3ccccc3)c2)[C@@H]1/C=C(\Cl)C(F)(F)F (racemic) [lambda cyhalothrin] | 89.3 (1.06) | 89.7 (1.23) | 86.5 (1.23) | 92.5 (0.70) | 92.9 (0.81) | 91.1 (0.81) | – | – | – | – |
| CN1COCN(Cc2cnc(Cl)s2)/C1=N\[N+](=O)[O-] [Thiamethoxam, thiamethoxam] | – | – | – | – | – | – | 86.7 (0.95) | 90.4 (0.98) | 91.4 (0.63) | 91.6 (0.65) |
